The experiment has as its target T1, LRRK2 kinase in SH-SY5Y cells over-expressing recombinant full length LRRK2 (Homo sapiens, UniProt Q5S007).
T1 construct: A BacMam virus expressing full length recombinant LRRK2 was purchased from Invitrogen; host or cells: SH-SY5Y human neuroblastoma cells transduced with BacMam LRRK2 virus
Nature of the experiment: Recombinant cellular LRRK2 AlphaScreen assay (LRRK2 Ser935 phosphorylation). Type of experiment: cell-based. As to conditions: 60 min. An excerpt: b. Recombinant Cellular LRRK2 AlphaScreen Assay
To determine the activity of compounds against LRRK2 kinase in cells, the observed LRRK2 kinase-dependent modulation of LRRK2 Ser 935 phosphorylation (Dzamko et al., 2010, Biochem. J. 430: 405-413) was utilized to develop a quantitative 384 well plate-based immunoassay of LRRK2 Ser935 phosphorylation in the human neuroblastoma cell line SH-SY5Y, engineered to over-express recombinant full length LRRK2 protein.
A BacMam virus expressing full length recombinant LRRK2 was purchased from Invitrogen and amplified by inoculation of SF-9 cells at MOI 0.3 for 4-5 days in Sf-900 III SFM medium supplemented with 3% fetal bovine serum. Infected cell cultures were then centrifuged at 2000 g for 20 minutes, viral supernatant titer determined by anti-gp64 plaque assay and stored at 4° C.
Affinity-purified anti-phospho LRRK2 Ser935 sheep polyclonal antibody (Dzamko et al., 2010, Biochem. J. 430: 405-413) was biotinylated by standard methods (PerkinElmer). Anti-LRRK2 rabbit polyclonal antibody was purchased from Novus Biologicals. AlphaScreen Protein A IgG Kit (including acceptor and donor beads) was purchased from Perkin Elmer.
SH-SY5Y cells were grown in DMEM/F12 medium with 10% dialysed fetal bovine serum and harvested by treatment with 0.5% trypsin-EDTA for 5 minutes at 37° C. followed by centrifugation at 1000 rpm for 4 minutes. The cell pellet was resuspended in Opti-MEM reduced serum media (Invitrogen) at 200,000 cells/ml and mixed with the BacMam LRRK2 virus at M01=50. 50 μl cell solutions were then dispensed to each well of a 384-well plate and incubated at 37° C., 5% CO2 for 24 hours.
Compounds were prepared at 10× final assay concentration as 11 point 1 in 4 serial I dilutions in Opti-MEM reduced serum medium (Invitrogen 31985070) containing 1% DMSO. On the day of assay, 5.5 μl of the compound solutions were transferred from the compound plate to the cell assay plate to achieve a top final assay concentration of 10 uM. DMSO (0.1% final assay concentration) was added to column 6 and 2-(benzyloxy)-5-methyl-4-(1-methyl-1H-pyrazol-4-yl)-N-(pyridin-3-yl)benzamide (2 μM final assay concentration) was added to column 18 to serve as 0% and 100% inhibition controls, respectively.
Cells were incubated at 37° C., 5% CO2 for 60 minutes. The medium was then removed and cells lysed by addition of 20 μl of cell lysis buffer (Cell Signaling Technology) and incubation at 4° C. for 20 minutes. 10 μl of antibody/acceptor bead mix [(1/1000 biotinylated-pS935 LRRK2 antibody, 1/1000 total-LRRK2 antibody, 1/100 Acceptor beads in AlphaScreen detection buffer (25 mM Hepes (pH 7.4), 0.5% Triton X-100, 1 mg/ml Dextran 500 and 0.1% BSA)] was then added to each well and plates incubated for 2 hours at ambient temperature in the dark. 10 μl of donor beads solution (1/33.3 donor beads in AlphaScreen detection buffer) was then added to each well. Following incubation for a further 2 hours at ambient temperature in the dark, plates were read on an EnVision™ plate reader at emission 520-620 nm with excitation 680 nm. Dose response curve data was based on a sigmoidal dose-response model.
In general terms: Alpha assays give light when donor and acceptor beads are brought close together.

Consider 22 molecules from patent publication US20200392158A1, “INHIBITORS OF LEUCINE RICH REPEAT KINASE 2” (GLAXOSMITHKLINE INTELLECTUAL PROPERTY DEVELOPMENT LIMITED, priority 2017, published 2020).

A value given as a limit tells only on which side of the number the result lay.

T1 sequence (Q5S007 whole entry): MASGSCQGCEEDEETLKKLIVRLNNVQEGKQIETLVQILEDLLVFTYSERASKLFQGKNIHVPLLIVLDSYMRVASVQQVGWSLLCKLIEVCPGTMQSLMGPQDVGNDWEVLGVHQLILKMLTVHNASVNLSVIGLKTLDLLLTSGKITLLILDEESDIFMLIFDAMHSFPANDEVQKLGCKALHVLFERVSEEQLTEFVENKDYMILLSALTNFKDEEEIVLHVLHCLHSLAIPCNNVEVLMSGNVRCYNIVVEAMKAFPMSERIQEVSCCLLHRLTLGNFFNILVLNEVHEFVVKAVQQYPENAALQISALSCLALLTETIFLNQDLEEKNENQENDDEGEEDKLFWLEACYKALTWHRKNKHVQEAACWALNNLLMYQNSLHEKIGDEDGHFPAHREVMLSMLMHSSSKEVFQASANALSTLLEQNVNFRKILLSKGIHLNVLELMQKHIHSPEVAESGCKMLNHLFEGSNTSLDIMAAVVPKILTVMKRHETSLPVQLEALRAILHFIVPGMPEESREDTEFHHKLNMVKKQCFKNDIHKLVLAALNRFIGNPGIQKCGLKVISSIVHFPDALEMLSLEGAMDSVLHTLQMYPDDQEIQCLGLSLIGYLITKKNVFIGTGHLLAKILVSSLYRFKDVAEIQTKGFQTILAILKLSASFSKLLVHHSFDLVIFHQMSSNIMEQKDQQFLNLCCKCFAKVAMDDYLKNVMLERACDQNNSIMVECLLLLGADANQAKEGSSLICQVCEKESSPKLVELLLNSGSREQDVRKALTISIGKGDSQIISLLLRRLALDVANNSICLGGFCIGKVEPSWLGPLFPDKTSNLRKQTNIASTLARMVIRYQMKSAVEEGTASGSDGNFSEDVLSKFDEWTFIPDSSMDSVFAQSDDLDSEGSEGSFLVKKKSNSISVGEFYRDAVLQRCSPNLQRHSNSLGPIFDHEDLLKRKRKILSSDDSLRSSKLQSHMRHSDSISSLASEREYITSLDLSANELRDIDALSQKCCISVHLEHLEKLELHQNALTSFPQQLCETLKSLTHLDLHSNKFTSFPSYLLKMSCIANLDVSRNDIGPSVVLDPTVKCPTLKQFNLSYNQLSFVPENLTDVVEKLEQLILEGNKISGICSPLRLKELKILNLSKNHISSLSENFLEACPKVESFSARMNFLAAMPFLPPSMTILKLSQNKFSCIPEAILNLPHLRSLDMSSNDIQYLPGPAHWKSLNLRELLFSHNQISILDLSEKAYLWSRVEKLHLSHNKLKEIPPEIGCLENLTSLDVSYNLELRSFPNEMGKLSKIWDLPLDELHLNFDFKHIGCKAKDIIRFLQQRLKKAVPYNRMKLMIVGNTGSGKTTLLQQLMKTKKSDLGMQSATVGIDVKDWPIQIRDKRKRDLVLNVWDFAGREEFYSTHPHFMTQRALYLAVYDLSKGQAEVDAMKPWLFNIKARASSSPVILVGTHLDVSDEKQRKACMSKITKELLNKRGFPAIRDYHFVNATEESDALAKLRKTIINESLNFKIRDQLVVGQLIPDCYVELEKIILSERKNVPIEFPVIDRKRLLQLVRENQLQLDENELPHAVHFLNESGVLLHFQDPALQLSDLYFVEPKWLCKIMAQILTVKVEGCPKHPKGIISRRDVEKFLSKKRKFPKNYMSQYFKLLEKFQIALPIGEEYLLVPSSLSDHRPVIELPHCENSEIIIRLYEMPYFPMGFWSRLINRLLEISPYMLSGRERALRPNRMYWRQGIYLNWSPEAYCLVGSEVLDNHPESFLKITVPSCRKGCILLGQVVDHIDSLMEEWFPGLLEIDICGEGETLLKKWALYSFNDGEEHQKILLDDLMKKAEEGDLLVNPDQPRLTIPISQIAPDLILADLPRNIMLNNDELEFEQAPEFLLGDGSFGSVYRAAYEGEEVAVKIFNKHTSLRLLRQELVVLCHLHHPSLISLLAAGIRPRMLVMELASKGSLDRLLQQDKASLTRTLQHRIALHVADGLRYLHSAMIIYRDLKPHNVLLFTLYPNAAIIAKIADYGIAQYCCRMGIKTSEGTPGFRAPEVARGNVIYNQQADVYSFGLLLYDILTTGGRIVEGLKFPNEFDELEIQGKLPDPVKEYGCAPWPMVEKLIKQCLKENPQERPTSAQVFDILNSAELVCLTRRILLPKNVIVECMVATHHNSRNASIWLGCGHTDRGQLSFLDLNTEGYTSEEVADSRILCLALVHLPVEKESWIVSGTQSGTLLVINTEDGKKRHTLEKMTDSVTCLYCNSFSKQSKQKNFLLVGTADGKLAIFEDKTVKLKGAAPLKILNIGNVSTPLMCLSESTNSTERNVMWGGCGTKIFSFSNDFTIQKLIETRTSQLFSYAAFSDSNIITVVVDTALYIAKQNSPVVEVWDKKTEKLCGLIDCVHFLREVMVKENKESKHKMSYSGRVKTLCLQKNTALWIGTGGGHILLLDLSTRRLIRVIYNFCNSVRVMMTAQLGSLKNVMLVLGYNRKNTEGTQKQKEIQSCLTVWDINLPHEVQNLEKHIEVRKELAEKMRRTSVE

Turning to `Cc1c2c(nn1C1(C#N)CCOCC1)OCCCNc1nc(ncc1Cl)N2` [E450, 4-{14-chloro-4-methyl-8-oxa-2,5,6,12,16,17-hexaazatricyclo[11.3.1.0^3,7]heptadeca-1(17),3,6,13,15-pentaen-5-yl}oxane-4-carbonitrile], the IC50 was no more than 0.1 µM.
Take `CC1CCOc2nn(C3CCOCC3)c(Cl)c2Nc2ncc(Cl)c(n2)N1` (stereo not shown) [E343, 4,14-Dichloro-11-methyl-5-(oxan-4-yl)-8-oxa-2,5,6,12,16,17-hexaazatricyclo[11.3.1.0^3,7]heptadeca-1(16),3,6,13(17),14-pentaene]: the half-inhibitory concentration (IC50) is no more than 0.1 µM.
Under `Cc1c2c(nn1C(C)(C)CO)OCC[C@@H](C)Nc1nc(ncc1Cl)N2` [E452, 2-[(11R)-14-Chloro-4,11-dimethyl-8-oxa-2,5,6,12,16,17-hexaazatricyclo[11.3.1.0^3,7]heptadeca-1(16),3,6,13(17),14-pentaen-5-yl]-2-methylpropan-1-ol] stands no more than 0.1 µM; under `Cc1c2c(nn1C1CCC(O)CC1)OCCC(C)Nc1nc(ncc1Cl)N2` (single isomer, unassigned) [E94, 4-{14-chloro-4,11-dimethyl-8-oxa-2,5,6,12,16,17-hexaazatricyclo [11.3.1.0^3,7]heptadeca-1(16),3,6,13(17),14-pentaen-5-yl}cyclohexan-1-ol], no more than 0.1 µM.
`COC1CCC(n2nc3c(c2C)Nc2ncc(Cl)c(n2)NCCCO3)CC1` (single isomer, unassigned) [E237, 14-Chloro-5-(4-methoxycyclohexyl)-4-methyl-8-oxa-2,5,6,12,16,17-hexaazatricyclo[11.3.1.0^3,7]heptadeca-1(16), 3,6,13(17),14-pentaene]: the IC50 was no more than 0.1 µM.
Take `N#Cc1cnc2nc1NCCCOc1nn(C3CCOCC3)c(Cl)c1N2` [E15, 4-Chloro-5-(oxan-4-yl)-8-oxa-2,5,6,12,16,17-hexaazatricyclo[11.3.1.0^3,7]heptadeca-1(16),3,6,13(17),14-pentaene-14-carbonitrile]: the concentration for half-maximal inhibition (IC50) was no more than 0.1 µM.
As for `Cc1c2c(nn1C(C)(C)C#N)OCC(C)C(C)Nc1nc(ncc1Cl)N2` (single isomer, unassigned) [E165, 2-{14-Chloro-4,10,11-trimethyl-8-oxa-2,5,6, 12,16,17-hexaazatricyclo[11.3.1.0^3,7]heptadeca-1(16),3,6, 13(17),14-pentaen-5-yl}-2-methylpropanenitrile], the IC50 is no more than 0.1 µM.
With `Cc1c2c(nn1C1CCOCC1)OCC(F)CNc1nc(ncc1Cl)N2` (single isomer, unassigned) [E17, 14-Chloro-10-fluoro-4-methyl-5-(oxan-4-yl)-8-oxa-2,5,6,12,16,17-hexaazatricyclo [11.3.1.0^3,7]heptadeca-1(16),3,6,13(17),14-pentaene], the IC50 was no more than 0.1 µM.
`Cc1c2c(nn1C1CCOC(C)C1)OCCC(C)Nc1nc(ncc1Cl)N2` (single isomer, unassigned) [E80, 14-chloro-4,11-dimethyl-5-(2-methyloxan-4-yl)-8-oxa-2,5,6,12, 16,17-hexaazatricyclo[11.3.1.0^3,7]heptadeca-1(16),3,6,13(17),14-pentaene]: the IC50 was no more than 0.1 µM.
Under `Clc1cnc2nc1NCCCOc1nn(C3CCOC3)c(Cl)c1N2` (stereo not shown) [E144, 4,14-Dichloro-5-(oxolan-3-yl)-8-oxa-2,5,6,12,16,17-hexaaza tricyclo[11.3.1.0^3,7]heptadeca-1(16),3,6,13(17),14-pentaene] stands no more than 0.1 µM; under `Cc1c2c(nn1CC1(C)COC1)OCCCNc1nc(ncc1Cl)N2` [E143, 14-Chloro-4-methyl-5-[(3-methyloxetan-3-yl)methyl]-8-oxa-2,5,6,12,16,17-hexaazatricyclo[11.3.1.0^3,7]heptadeca-1(16),3,6, 13(17), 14-pentaene], no more than 0.1 µM; under `Cc1c2c(nn1C1CCOC1)OCCCNc1nc(ncc1C(F)(F)F)N2` (stereo not shown) [E126, 4-Methyl-5-(oxolan-3-yl)-14-(trifluoromethyl)-8-oxa-2,5,6,12,16, 17-hexaazatricyclo[11.3.1.0^3,7]heptadeca-1(16),3,6,13(17),14-pentaene], no more than 0.1 µM.
On to `Cc1c2c(nn1C1CC3CCC(C1)O3)OCCC(C)Nc1nc(ncc1Cl)N2` (single isomer, unassigned) [E249, 14-Chloro-4,11-dimethyl-5-{8-oxabicyclo[3.2.1]octan-3-yl}-8-oxa-2,5,6,12,16,17-hexaazatricyclo[11.3.1.0^3,7] heptadeca-1(16),3,6,13(17),14-pentaene], for which the IC50 was no more than 0.1 µM.
Take `COCC1CCOc2nn(C3CCOCC3)c(C)c2Nc2ncc(Br)c(n2)N1` (single isomer, unassigned) [E168, 14-Bromo-11-(methoxymethyl)-4-methyl-5-(oxan-4-yl)-8-oxa-2,5,6,12,16,17-hexaazatricyclo[11.3.1.0^3,7] heptadeca-1(16),3,6,13(17),14-pentaene]: the half-inhibitory concentration (IC50) was no more than 0.1 µM.
For `Cc1c2c(nn1C1CCOCC1F)OCCC(C)Nc1nc(ncc1Cl)N2` (single isomer, unassigned) [E24, 14-chloro-5-(3-fluorooxan-4-yl)-4,11-dimethyl-8-oxa-2,5,6,12,16,17-hexaazatricyclo [11.3.1.0^3,7]heptadeca-1(17),3,6,13,15-pentaene], the concentration for half-maximal inhibition (IC50) was no more than 0.1 µM.
On to `Cc1c2c(nn1C1CCN(C3COC3)CC1F)OCCC(C)Nc1nc(ncc1Cl)N2` (single isomer, unassigned) [E96, 14-chloro-5-[3-fluoro-1-(oxetan-3-yl)piperidin-4-yl]-4,11-dimethyl-8-oxa-2,5,6,12,16,17-hexaazatricyclo[11.3.1.0^3,7]heptadeca-1(16),3,6,13(17),14-pentaene], for which the IC50 is no more than 0.1 µM.
Under `Cc1c2c(nn1C1CCOCC1)OCC(F)CNc1nc(ncc1Cl)N2` (stereo not shown) [E16, 14-Chloro-10-fluoro-4-methyl-5-(oxan-4-yl)-8-oxa-2,5,6,12,16,17-hexaazatricyclo [11.3.1.0^3,7]heptadeca-1(16),3,6,13(17),14-pentaene] stands no more than 0.1 µM; under `Cc1c2c(nn1C1CCOCC1C(F)(F)F)OCC[C@@H](C)Nc1nc(ncc1Cl)N2` (single isomer, unassigned) [E448], no more than 0.1 µM; under `COC1CNc2nc(ncc2Cl)Nc2c(nn(C3CCOC(C)C3)c2C)OC1` (single isomer, unassigned) [E206, 14-Chloro-10-methoxy-4-methyl-5-(2-methyloxan-4-yl)-8-oxa-2,5,6,12,16,17-hexaazatricyclo [11.3.1.0^3,7] heptadeca-1(16),3,6,13(17),14-pentaene], no more than 0.1 µM.
Under `Cc1c2c(nn1C1CCC(N3CCC(F)C3)CC1)OCCC(C)Nc1nc(ncc1Cl)N2` (single isomer, unassigned) [E158, 14-Chloro-5-[4-(3-fluoropyrrolidin-1-yl)cyclohexyl]-4,11-dimethyl-8-oxa-2,5,6,12,16,17-hexaazatricyclo [11.3.1.0^3,7]heptadeca-1(16),3,6,13(17),14-pentaene] stands no more than 0.1 µM; under `Cc1c2c(nn1C(C)(C)C(N)=O)OCCC(C)Nc1nc(ncc1Cl)N2` (single isomer, unassigned) [E42, 2-{14-chloro-4,11-dimethyl-8-oxa-2,5,6,12,16,17-hexaazatricyclo [11.3.1.0^3,7]heptadeca-1(16),3,6,13(17),14-pentaen-5-yl}-2-methylpropanamide], no more than 0.1 µM; under `Cc1c2c(nn1C1CCC(N3C[C@@H]4C[C@H]3CO4)CC1)OCCCNc1nc(ncc1Cl)N2` (single isomer, unassigned) [E50], no more than 0.1 µM.

As usually defined, the IC50 is the concentration needed to halve the response being measured.
